Patent US9555022B2, “Substituted triazolopyridines” (Bayer Intellectual Property GmbH, priority 2010, dated 2017)
pIC50: −log10 of the molar value.

Target: human full length recombinant Mps-1 kinase (Homo sapiens (Human), UniProt P33981)
Assay: Mps-1 Kinase Assay (TR-FRET)
Assay type: biochemical
Details: 10 μM ATP, 1 μM biotinylated peptide substrate, 60 min at 22° C., read-out: Mps-1 Inhibition, IC50 in M
Protocol: The human kinase Mps-1 phosphorylates a biotinylated substrate peptide. Detection of the phosphorylated product is achieved by time-resolved fluorescence resonance energy transfer (TR-FRET) from Europium-labelled anti-phospho-Serine/Threonine antibody as donor to streptavidin labelled with cross-linked allophycocyanin (SA-XLent) as acceptor. Compounds are tested for their inhibition of the kinase activity.
N-terminally GST-tagged human full length recombinant Mps-1 kinase (purchased from Invitrogen, Karslruhe, Germany, cat. no PV4071) was used. As substrate for the kinase reaction a biotinylated peptide of the amino-acid sequence […] (C-terminus in amide form, purchased from Biosynthan GmbH, Berlin) was used.
The concentration of Mps-1 in the assay was adjusted to the activity of the enzyme lot and was chosen appropriate to have the assay in the linear range, typical enzyme concentrations were in the range of about 1 nM (final conc. in the 5 μl assay volume).
The resulting mixture was incubated 1 h at 22° C. to allow the binding of the phosphorylated peptide to the anti-phospho(Ser/Thr)-Europium-antibody. Subsequently the amount of phosphorylated substrate was evaluated by measurement of the resonance energy transfer from the Europium-labelled anti-phospho(Ser/Thr) antibody to the Streptavidin-XLent.

human full length recombinant Mps-1 kinase, sequence (P33981 whole entry): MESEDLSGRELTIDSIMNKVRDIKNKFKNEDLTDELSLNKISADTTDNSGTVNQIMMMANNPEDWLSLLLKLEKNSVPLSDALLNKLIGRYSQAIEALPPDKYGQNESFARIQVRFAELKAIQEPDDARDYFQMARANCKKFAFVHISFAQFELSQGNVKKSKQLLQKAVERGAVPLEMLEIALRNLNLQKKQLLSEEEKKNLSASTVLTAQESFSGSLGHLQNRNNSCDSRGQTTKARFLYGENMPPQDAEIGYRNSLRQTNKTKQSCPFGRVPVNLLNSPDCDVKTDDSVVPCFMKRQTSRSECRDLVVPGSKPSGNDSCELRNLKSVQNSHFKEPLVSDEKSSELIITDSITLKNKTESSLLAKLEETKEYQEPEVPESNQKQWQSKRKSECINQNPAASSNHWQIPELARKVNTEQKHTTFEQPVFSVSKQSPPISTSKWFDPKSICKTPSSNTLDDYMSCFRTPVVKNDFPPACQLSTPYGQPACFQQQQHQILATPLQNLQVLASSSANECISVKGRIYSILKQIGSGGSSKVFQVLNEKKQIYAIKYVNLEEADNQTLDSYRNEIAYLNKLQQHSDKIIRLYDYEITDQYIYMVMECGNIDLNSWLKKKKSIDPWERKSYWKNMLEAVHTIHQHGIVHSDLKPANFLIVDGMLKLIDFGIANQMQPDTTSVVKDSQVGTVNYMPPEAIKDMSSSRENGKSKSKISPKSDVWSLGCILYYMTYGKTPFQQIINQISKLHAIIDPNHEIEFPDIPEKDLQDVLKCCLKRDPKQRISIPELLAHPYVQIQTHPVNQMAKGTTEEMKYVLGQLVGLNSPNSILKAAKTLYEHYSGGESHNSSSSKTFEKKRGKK

Question: With `CCOc1cc(N2CCOC2=O)ccc1Nc1nc2ccc(-c3ccc(NC(=O)Cc4ccc(F)cc4)cc3)cn2n1` [Example 02.12, N-[4-(2-{[2-ethoxy-4-(2-oxo-1,3-oxazolidin-3-yl)phenyl]amino}[,2]-triazolo[1,5-a]pyridin-6-yl)phenyl]-2-(4-fluorophenyl)acetamide] as the compound, how does the pIC50 read?
Answer: ≥ 9.00

Question: How did the pIC50 turn out when `Cc1cc(N2CCOC2=O)ncc1Nc1nc2ccc(-c3ccc(NC(=O)Cc4ccc(F)cc4)cc3)cn2n1` [Example 02.13, 2-(4-fluorophenyl)-N-[4-(2-{[4-methyl-6-(2-oxo-1,3-oxazolidin-3-yl)pyridin-3-yl]amino}[,2]-triazolo[1,5-a]pyridin-6-yl)phenyl]acetamide] was run?
Answer: ≥ 9.00

Question: With `COc1cc(C2=NCCO2)ccc1Nc1nc2ccc(-c3ccc(NC(=O)Cc4ccc(F)cc4)cc3)cn2n1` [Example 02.14, N-[4-(2-{[4-(4,5-dihydro-1,3-oxazol-2-yl)-2-methoxyphenyl]amino}[,2]-triazolo[1,5-a]pyridin-6-yl)phenyl]-2-(4-fluorophenyl)acetamide] as the compound, how does the pIC50 read?
Answer: ≥ 9.00

Question: With `Cc1cc(C2=NCCO2)ccc1Nc1nc2ccc(-c3ccc(NC(=O)Cc4ccc(F)cc4)cc3)cn2n1` [Example 02.15, N-[4-(2-{[4-(4,5-dihydro-1,3-oxazol-2-yl)-2-methylphenyl]amino}[,2]triazolo[1,5-a]pyridin-6-yl)phenyl]-2-(4-fluorophenyl)acetamide] as the compound, how does the pIC50 read?
Answer: ≥ 9.00

Question: How did the pIC50 turn out when `COc1cc(C(=O)N2CCS(=O)(=O)CC2)ccc1Nc1nc2ccc(-c3ccc(NC(=O)Cc4ccc(F)cc4)cc3)cn2n1` [Example 02.18, N-{4-[2-({4-[(1,1-dioxidothiomorpholin-4-yl)carbonyl]-2-methoxyphenyl}amino)[,2]triazolo[1,5-a]pyridin-6-yl]phenyl}-2-(4-fluorophenyl)acetamide] was run?
Answer: ≥ 9.00

Question: `COc1cc(C(=O)N2CC(O)C2)ccc1Nc1nc2ccc(-c3ccc(NC(=O)Cc4ccc(F)cc4)cc3)cn2n1` [Example 02.19, 2-(4-fluorophenyl)-N-{4-[2-({4-[(3-hydroxyazetidin-1-yl)carbonyl]-2-methoxyphenyl}amino)[,2]triazolo[1,5-a]pyridin-6-yl]phenyl}acetamide] was tested. Which pIC50 did it give?
Answer: ≥ 9.00

Question: With `COc1cc(C(=O)N2CCC(O)CC2)ccc1Nc1nc2ccc(-c3ccc(NC(=O)Cc4ccc(F)cc4)cc3)cn2n1` [Example 02.20, 2-(4-fluorophenyl)-N-{4-[2-({4-[(4-hydroxypiperidin-1-yl)carbonyl]-2-methoxyphenyl}amino)[,2]triazolo[1,5-a]pyridin-6-yl]phenyl}acetamide] as the compound, how does the pIC50 read?
Answer: ≥ 9.00

Question: With `COc1cc(C(=O)NC2COC2)ccc1Nc1nc2ccc(-c3ccc(NC(=O)Cc4ccc(F)cc4)cc3)cn2n1` [Example 02.21, 4-{[6-(4-{[(4-fluorophenyl)acetyl]amino}phenyl)[,2]triazolo[1,5-a]pyridin-2-yl]amino}-3-methoxy-N-(oxetan-3-yl)benzamide] as the compound, how does the pIC50 read?
Answer: ≥ 9.00

Question: With `COc1cc(C(=O)N2CCC2)ccc1Nc1nc2ccc(-c3ccc(NC(=O)Cc4ccc(F)cc4)cc3)cn2n1` [Example 02.22, N-[4-(2-{[4-(azetidin-1-ylcarbonyl)-2-methoxyphenyl]amino}[,2]-triazolo[1,5-a]pyridin-6-yl)phenyl]-2-(4-fluorophenyl)acetamide] as the compound, how does the pIC50 read?
Answer: ≥ 9.00

Question: `CCOc1cc(C(=O)N2CC3(COC3)C2)ccc1Nc1nc2ccc(-c3ccc(NC(=O)Cc4ccc(F)cc4)cc3)cn2n1` [Example 02.23, N-[4-(2-{[2-ethoxy-4-(2-oxa-6-azaspiro[3.3]hept-6-ylcarbonyl)phenyl]amino}[,2]triazolo[1,5-a]pyridin-6-yl)phenyl]-2-(4-fluorophenyl)acetamide] was tested. Which pIC50 did it give?
Answer: ≥ 9.00

Question: How did the pIC50 turn out when `CCOc1cc(C(=O)N2CC(O)C2)ccc1Nc1nc2ccc(-c3ccc(NC(=O)Cc4ccc(F)cc4)cc3)cn2n1` [Example 02.24, N-{4-[2-({2-ethoxy-4-[(3-hydroxyazetidin-1-yl)carbonyl]phenyl}amino)[,2]triazolo[1,5-a]pyridin-6-yl]phenyl}-2-(4-fluorophenyl)acetamide] was run?
Answer: ≥ 9.00

Question: With `CCOc1cc(C(=O)NC2CCN(C)CC2)ccc1Nc1nc2ccc(-c3ccc(NC(=O)Cc4ccc(F)cc4)cc3)cn2n1` [Example 02.25, 3-ethoxy-4-{[6-(4-{[(4-fluorophenyl)acetyl]amino}phenyl)[,2]-triazolo[1,5-a]pyridin-2-yl]amino}-N-(1-methylpiperidin-4-yl)benzamide] as the compound, how does the pIC50 read?
Answer: ≥ 9.00

Question: With `O=C(Cc1ccc(F)cc1)Nc1ccc(-c2ccc3nc(Nc4ccc(C(=O)N5CC6(COC6)C5)cc4OCC(F)(F)F)nn3c2)cc1` [Example 02.26, 2-(4-fluorophenyl)-N-[4-(2-{[4-(2-oxa-6-azaspiro[3.3]hept-6-ylcarbonyl)-2-(2,2,2-trifluoroethoxy)phenyl]amino}[,2]triazolo[1,5-a]pyridin-6-yl)phenyl]acetamide] as the compound, how does the pIC50 read?
Answer: ≥ 9.00

Question: How did the pIC50 turn out when `O=C(Cc1ccc(F)cc1)Nc1ccc(-c2ccc3nc(Nc4ccc(C(=O)N5CC(O)C5)cc4OCC(F)(F)F)nn3c2)cc1` [Example 02.27, 2-(4-fluorophenyl)-N-{4-[2-({4-[(3-hydroxyazetidin-1-yl)carbonyl]-2-(2,2,2-trifluoroethoxy)phenyl}amino)[,2]triazolo[1,5-a]pyridin-6-yl]phenyl}acetamide] was run?
Answer: ≥ 9.00

Question: How did the pIC50 turn out when `COc1cc(N2CCN(C)CC2)ccc1Nc1nc2ccc(-c3ccc(NC(=O)Cc4ccc(F)cc4)cc3)cn2n1` [Example 02.28, 2-(4-fluorophenyl)-N-[4-(2-{[2-methoxy-4-(4-methylpiperazin-1-yl)phenyl]amino}[,2]-triazolo[1,5-a]pyridin-6-yl)phenyl]acetamide] was run?
Answer: ≥ 9.00

Question: How did the pIC50 turn out when `O=C(Cc1ccc(F)cc1)Nc1ccc(-c2ccc3nc(Nc4ccc(C(=O)N5CC6(COC6)C5)cc4OCCF)nn3c2)cc1` [Example 02.30, N-[4-(2-{[2-(2-fluoroethoxy)-4-(2-oxa-6-azaspiro[3.3]hept-6-ylcarbonyl)phenyl]amino}[,2]triazolo[1,5-a]pyridin-6-yl)phenyl]-2-(4-fluorophenyl)acetamide] was run?
Answer: ≥ 9.00

Question: With `O=C(Cc1ccc(F)cc1)Nc1ccc(-c2ccc3nc(Nc4ccc(C(=O)N5CCOCC5)cc4OCC(F)F)nn3c2)cc1` [Example 02.31, N-[4-(2-{[2-(2,2-difluoroethoxy)-4-(morpholin-4-ylcarbonyl)phenyl]amino}[,2]-triazolo[1,5-a]pyridin-6-yl)phenyl]-2-(4-fluorophenyl)acetamide] as the compound, how does the pIC50 read?
Answer: ≥ 9.00

Question: How did the pIC50 turn out when `O=C(Cc1ccc(F)cc1)Nc1ccc(-c2ccc3nc(Nc4ccc(C(=O)N5CCOCC5)cc4C(F)(F)F)nn3c2)cc1` [Example 02.32, 2-(4-fluorophenyl)-N-[4-(2-{[4-(morpholin-4-ylcarbonyl)-2-(trifluoromethyl)phenyl]amino}[,2]-triazolo[1,5-a]pyridin-6-yl)phenyl]acetamide] was run?
Answer: ≥ 9.00

Question: With `COc1cc(CN2CCOCC2)ccc1Nc1nc2ccc(-c3ccc(NC(=O)Cc4ccc(F)cc4)cc3)cn2n1` [Example 02.33, 2-(4-fluorophenyl)-N-[4-(2-{[2-methoxy-4-(morpholin-4-ylmethyl)phenyl]amino}[,2]-triazolo[1,5-a]pyridin-6-yl)phenyl]acetamide] as the compound, how does the pIC50 read?
Answer: ≥ 9.00

Question: With `CCOc1cc(OC2CCN(C)CC2)ccc1Nc1nc2ccc(-c3ccc(NC(=O)Cc4ccc(F)cc4)cc3)cn2n1` [Example 02.34, N-{4-[2-({2-ethoxy-4-[(1-methylpiperidin-4-yl)oxy]phenyl}amino)[,2]triazolo[1,5-a]pyridin-6-yl]phenyl}-2-(4-fluorophenyl)acetamide] as the compound, how does the pIC50 read?
Answer: ≥ 9.00

Question: How did the pIC50 turn out when `COc1cc(OC2CCN(C)CC2)ccc1Nc1nc2ccc(-c3ccc(NC(=O)Cc4ccc(F)cc4)cc3)cn2n1` [Example 02.35, 2-(4-fluorophenyl)-N-{4-[2-({2-methoxy-4-[(1-methylpiperidin-4-yl)oxy]phenyl}amino)[,2]triazolo[1,5-a]pyridin-6-yl]phenyl}acetamide] was run?
Answer: ≥ 9.00

Question: `CSc1cc(OC2CCN(C)CC2)ccc1Nc1nc2ccc(-c3ccc(NC(=O)Cc4ccc(F)cc4)cc3)cn2n1` [Example 02.36, 2-(4-fluorophenyl)-N-{4-[2-({4-[(1-methylpiperidin-4-yl)oxy]-2-(methylsulfanyl)phenyl}amino)[,2]triazolo[1,5-a]pyridin-6-yl]phenyl}acetamide] was tested. Which pIC50 did it give?
Answer: ≥ 9.00

Question: How did the pIC50 turn out when `COc1cc(S(=O)(=O)N2CCOCC2)ccc1Nc1nc2ccc(-c3ccc(NC(=O)Cc4ccc(F)cc4)cc3)cn2n1` [Example 02.37, 2-(4-fluorophenyl)-N-[4-(2-{[2-methoxy-4-(morpholin-4-ylsulfonyl)phenyl]amino}[,2]-triazolo[1,5-a]pyridin-6-yl)phenyl]acetamide] was run?
Answer: ≥ 9.00

Question: With `Cc1cc(C(=O)N2CC3(COC3)C2)ccc1Nc1nc2ccc(-c3ccc(NC(=O)Cc4ccc(F)cc4)cc3)cn2n1` [Example 02.38, 2-(4-fluorophenyl)-N-[4-(2-{[2-methyl-4-(2-oxa-6-azaspiro[3.3]hept-6-ylcarbonyl)phenyl]amino}[,2]triazolo[1,5-a]pyridin-6-yl)phenyl]acetamide] as the compound, how does the pIC50 read?
Answer: ≥ 9.00

Question: `Cc1cc(C(=O)N2CCOCC2)ccc1Nc1nc2ccc(-c3ccc(NC(=O)Cc4ccc(F)cc4)cc3)cn2n1` [Example 02.39, 2-(4-fluorophenyl)-N-[4-(2-{[2-methyl-4-(morpholin-4-ylcarbonyl)phenyl]amino}[,2]-triazolo[1,5-a]pyridin-6-yl)phenyl]acetamide] was tested. Which pIC50 did it give?
Answer: ≥ 9.00
